ChEMBL document CHEMBL1201862, “PubChem BioAssay data set” (2004)
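Where inhibition never reached the appropriate level, the endpoint shown equals the highest concentration tested. Otherwise, values were interpolated linearly from a five-concentration, 48-hour dose response in 96-well plates. Here, GI50 denotes the concentration required for 50% inhibition of growth.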 Calls of active or inactive are those of the source. No stated cut-off is given here; in the data, active = GI50 up to about 1.1 µM and inactive = higher.

Experiments:
Assay in all cases: NCI anticancer screen, dose series, 48 h
[1] = test system: 786-0
[2] = test system: A498
[3] = test system: A549
[4] = test system: ACHN
[5] = test system: CAKI-1
[6] = test system: CCRF-CEM
[7] = test system: COLO 205
[8] = test system: DLD-1
[9] = test system: DMS-114
[10] = test system: EKVX
[11] = test system: HCC 2998
[12] = test system: HCT-116
[13] = test system: HCT-15
[14] = test system: HL-60
[15] = test system: HOP-18
[16] = test system: HOP-62
[17] = test system: HOP-92
[18] = test system: HT-29
[19] = test system: IGROV-1
[20] = test system: K562
[21] = test system: KM-20L2
[22] = test system: KM12
[23] = test system: LOX IMVI
[24] = test system: LXFL 529
[25] = test system: M14
[26] = test system: M19-MEL
[27] = test system: MOLT-4
[28] = test system: Malme-3M
[29] = test system: NCI-H226
[30] = test system: NCI-H23
[31] = test system: NCI-H460
[32] = test system: NCI-H522
[33] = test system: OVCAR-3
[34] = test system: OVCAR-4
[35] = test system: OVCAR-5
[36] = test system: OVCAR-8
[37] = test system: RPMI-8226
[38] = test system: RXF 393
[39] = test system: RXF 631
[40] = test system: SF-268
[41] = test system: SF-295
[42] = test system: SF-539
[43] = test system: SK-MEL-28
[44] = test system: SK-MEL-2
[45] = test system: SK-MEL-5
[46] = test system: SK-OV-3
[47] = test system: SN12C
[48] = test system: SNB-19
[49] = test system: SNB-75
[50] = test system: SNB-78
[51] = test system: SR
[52] = test system: SW-620
[53] = test system: TK-10
[54] = test system: U-251
[55] = test system: UACC-257
[56] = test system: UACC-62
[57] = test system: UO-31
[58] = test system: XF498
[59] = test system: DMS-273

CCCCOC(=O)CNC(=O)OC/C=C/C#CC#C/C=C/COC(=O)NCC(=O)OCCCC
GI50 [1]: 68.7 µM (inactive) | GI50 [2]: > 10 µM (inactive) | GI50 [3]: > 10 µM (inactive) | GI50 [4]: > 10 µM (inactive) | GI50 [5]: > 10 µM (inactive) | GI50 [6]: > 10 µM (inactive) | GI50 [7]: > 10 µM (inactive) | GI50 [8]: > 10 µM (inactive) | GI50 [9]: > 10 µM (inactive) | GI50 [10]: > 10 µM (inactive) | GI50 [11]: > 10 µM (inactive) | GI50 [12]: > 10 µM (inactive) | GI50 [13]: > 10 µM | GI50 [14]: > 10 µM (inactive) | GI50 [15]: > 10 µM (inactive) | GI50 [16]: > 10 µM (inactive) | GI50 [17]: > 10 µM (inactive) | GI50 [18]: > 10 µM (inactive) | GI50 [19]: > 10 µM (inactive) | GI50 [20]: > 10 µM (inactive) | GI50 [21]: > 10 µM (inactive) | GI50 [22]: > 10 µM (inactive) | GI50 [23]: > 10 µM (inactive) | GI50 [24]: > 10 µM (inactive) | GI50 [25]: > 10 µM (inactive) | GI50 [26]: > 10 µM (inactive) | GI50 [27]: > 10 µM (inactive) | GI50 [28]: > 10 µM (inactive) | GI50 [29]: > 10 µM (inactive) | GI50 [30]: > 10 µM (inactive) | GI50 [31]: > 10 µM (inactive) | GI50 [32]: > 10 µM (inactive) | GI50 [33]: > 10 µM (inactive) | GI50 [34]: > 10 µM (inactive) | GI50 [35]: > 10 µM (inactive) | GI50 [36]: > 10 µM (inactive) | GI50 [37]: > 10 µM (inactive) | GI50 [38]: > 10 µM (inactive) | GI50 [39]: > 10 µM (inactive) | GI50 [40]: > 10 µM (inactive) | GI50 [41]: > 10 µM (inactive) | GI50 [42]: > 10 µM (inactive) | GI50 [43]: > 10 µM (inactive) | GI50 [44]: > 10 µM (inactive) | GI50 [45]: > 10 µM (inactive) | GI50 [46]: > 10 µM (inactive) | GI50 [47]: > 10 µM (inactive) | GI50 [48]: > 10 µM (inactive) | GI50 [49]: 27 µM (inactive) | GI50 [50]: > 10 µM (inactive) | GI50 [51]: > 10 µM (inactive) | GI50 [52]: > 100 µM (inactive) | GI50 [53]: > 10 µM (inactive) | GI50 [54]: > 10 µM (inactive) | GI50 [55]: > 10 µM (inactive) | GI50 [56]: > 10 µM (inactive) | GI50 [57]: > 10 µM (inactive) | GI50 [58]: > 10 µM (inactive)

N#Cc1ccc(Oc2cccc(Oc3ccccc3)c2)cc1C#N
GI50 [1]: > 10 µM (inactive) | GI50 [2]: 41.5 µM (inactive) | GI50 [3]: 42 µM (inactive) | GI50 [4]: 54.3 µM (inactive) | GI50 [5]: > 10 µM (inactive) | GI50 [6]: 23.3 µM (inactive) | GI50 [7]: > 10 µM (inactive) | GI50 [8]: > 10 µM (inactive) | GI50 [9]: 31.9 µM (inactive) | GI50 [10]: 37.5 µM (inactive) | GI50 [11]: > 10 µM (inactive) | GI50 [12]: 44.3 µM (inactive) | GI50 [13]: > 10 µM | GI50 [14]: 31.9 µM (inactive) | GI50 [15]: > 10 µM (inactive) | GI50 [16]: > 10 µM (inactive) | GI50 [17]: > 10 µM (inactive) | GI50 [18]: > 10 µM (inactive) | GI50 [19]: > 10 µM (inactive) | GI50 [20]: 41.4 µM (inactive) | GI50 [21]: > 10 µM (inactive) | GI50 [22]: > 10 µM (inactive) | GI50 [23]: > 10 µM (inactive) | GI50 [24]: 61 µM (inactive) | GI50 [25]: > 10 µM (inactive) | GI50 [26]: > 10 µM (inactive) | GI50 [27]: 30.8 µM (inactive) | GI50 [28]: > 10 µM (inactive) | GI50 [29]: > 10 µM (inactive) | GI50 [30]: 44.8 µM (inactive) | GI50 [31]: 74.5 µM (inactive) | GI50 [32]: 14.2 µM (inactive) | GI50 [33]: 75.2 µM (inactive) | GI50 [34]: 36.7 µM (inactive) | GI50 [35]: > 10 µM (inactive) | GI50 [36]: > 10 µM (inactive) | GI50 [37]: > 10 µM (inactive) | GI50 [38]: 64 µM (inactive) | GI50 [39]: 79.6 µM (inactive) | GI50 [40]: 48.2 µM (inactive) | GI50 [41]: 76.2 µM (inactive) | GI50 [42]: 99.5 µM (inactive) | GI50 [43]: 61.7 µM (inactive) | GI50 [44]: 64 µM (inactive) | GI50 [45]: 36.7 µM (inactive) | GI50 [46]: > 10 µM (inactive) | GI50 [47]: > 10 µM (inactive) | GI50 [48]: 28.5 µM (inactive) | GI50 [49]: 1.35 µM (inactive) | GI50 [50]: > 10 µM (inactive) | GI50 [51]: > 10 µM (inactive) | GI50 [52]: > 100 µM (inactive) | GI50 [53]: > 10 µM (inactive) | GI50 [54]: 71.1 µM (inactive) | GI50 [55]: > 10 µM (inactive) | GI50 [56]: > 10 µM (inactive) | GI50 [57]: 14.9 µM (inactive) | GI50 [58]: > 10 µM (inactive)

N#CC(C#N)=CSc1ccccc1
GI50 [1]: 16.7 µM (inactive) | GI50 [3]: 19.6 µM (inactive) | GI50 [4]: 30.5 µM (inactive) | GI50 [5]: 26.2 µM (inactive) | GI50 [6]: 1.52 µM (inactive) | GI50 [7]: 24.5 µM (inactive) | GI50 [8]: 24 µM (inactive) | GI50 [9]: 17.7 µM (inactive) | GI50 [59]: 21.4 µM (inactive) | GI50 [10]: 48.2 µM (inactive) | GI50 [12]: 23 µM (inactive) | GI50 [13]: 22.1 µM | GI50 [14]: 11.9 µM (inactive) | GI50 [15]: > 100 µM (inactive) | GI50 [16]: 55 µM (inactive) | GI50 [17]: 50.2 µM (inactive) | GI50 [18]: 28.6 µM (inactive) | GI50 [19]: 17.3 µM (inactive) | GI50 [20]: 80.7 µM (inactive) | GI50 [21]: 32.7 µM (inactive) | GI50 [22]: 19.7 µM (inactive) | GI50 [23]: 12.6 µM (inactive) | GI50 [24]: 24.3 µM (inactive) | GI50 [25]: 22.9 µM (inactive) | GI50 [27]: 13.2 µM (inactive) | GI50 [29]: 19.5 µM (inactive) | GI50 [30]: 57.4 µM (inactive) | GI50 [31]: 34 µM (inactive) | GI50 [32]: 11.8 µM (inactive) | GI50 [33]: 34.4 µM (inactive) | GI50 [34]: 47 µM (inactive) | GI50 [35]: 26.3 µM (inactive) | GI50 [36]: 17.8 µM (inactive) | GI50 [37]: 48 µM (inactive) | GI50 [38]: 17.2 µM (inactive) | GI50 [39]: 20.6 µM (inactive) | GI50 [40]: 13.4 µM (inactive) | GI50 [41]: 35 µM (inactive) | GI50 [42]: 20 µM (inactive) | GI50 [43]: 23.8 µM (inactive) | GI50 [44]: 18.7 µM (inactive) | GI50 [45]: 28.5 µM (inactive) | GI50 [46]: 59 µM (inactive) | GI50 [47]: 19.6 µM (inactive) | GI50 [48]: 60 µM (inactive) | GI50 [49]: 24.1 µM (inactive) | GI50 [51]: 7.6 µM (inactive) | GI50 [52]: 32.4 µM (inactive) | GI50 [53]: 38 µM (inactive) | GI50 [54]: 16.5 µM (inactive) | GI50 [55]: 46.2 µM (inactive) | GI50 [56]: 24.2 µM (inactive) | GI50 [57]: 13.3 µM (inactive) | GI50 [58]: 53.7 µM (inactive)
